# Results taken from PubChem BioAssay AID330 (DTP/NCI, 2004).
# Several values for one entry are separate records, joined by “and”; a condition that tells them apart may be missing. Equal values may be shown once. Toxic doses and inconclusive results are not listed.
# System: P388 leukemia ip, CD2F1 mice, survival T/C
# Test: NCI In Vivo Anticancer Drug Screen. Data for tumor model P388 Leukemia (intraperitoneal) in CD2F1 (CDF1) mice
# Settings: endpoint: median survival time, higher = longer survival
# Outline: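 Mice carrying the transplanted tumor received test compound or vehicle. Survival was recorded in each group, and the value is the treated-group measurement divided by that of the vehicle-treated control group.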
# [1] = dose: 50.0 mg/kg/injection, schedule: Q01DX005 (ip), vehicle: saline with Tween-80
# [2] = dose: 100.0 mg/kg/injection, schedule: Q01DX005 (ip), vehicle: saline with Tween-80
# [3] = dose: 200.0 mg/kg/injection, schedule: Q01DX005 (ip), vehicle: saline with Tween-80
# [4] = dose: 20.0 mg/kg/injection, schedule: Q01DX009 (ip), vehicle: other
# [5] = dose: 40.0 mg/kg/injection, schedule: Q01DX009 (ip), vehicle: other
# [6] = dose: 50.0 mg/kg/injection, schedule: Q01DX009 (ip), vehicle: Klucel (hydroxypropylcellulose) (HPC)
# [7] = dose: 100.0 mg/kg/injection, schedule: Q01DX009 (ip), vehicle: saline with Tween-80
# [8] = dose: 200.0 mg/kg/injection, schedule: Q01DX009 (ip), vehicle: saline with Tween-80
# [9] = dose: 60.0 mg/kg/injection, schedule: Q01DX005 (ip), vehicle: saline with Tween-80
# [10] = dose: 120.0 mg/kg/injection, schedule: Q01DX005 (ip), vehicle: saline with Tween-80
# [11] = dose: 240.0 mg/kg/injection, schedule: Q01DX005 (ip), vehicle: saline with Tween-80
# [12] = dose: 100.0 mg/kg/injection, schedule: Q01DX009 (ip), vehicle: Klucel (hydroxypropylcellulose) (HPC)
# [13] = dose: 200.0 mg/kg/injection, schedule: Q01DX009 (ip), vehicle: Klucel (hydroxypropylcellulose) (HPC)
# [14] = dose: 12.5 mg/kg/injection, schedule: Q04DX003 (ip), vehicle: saline
# [15] = dose: 25.0 mg/kg/injection, schedule: Q04DX003 (ip), vehicle: saline
# [16] = dose: 25.0 mg/kg/injection, schedule: Q01DX009 (ip), vehicle: saline
# [17] = dose: 50.0 mg/kg/injection, schedule: Q01DX009 (ip), vehicle: saline
# [18] = dose: 12.5 mg/kg/injection, schedule: Q01DX009 (ip), vehicle: saline with Tween-80
# [19] = dose: 25.0 mg/kg/injection, schedule: Q01DX009 (ip), vehicle: saline with Tween-80
# [20] = dose: 12.5 mg/kg/injection, schedule: Q01DX009 (ip), vehicle: saline
compound,measurement,setting,value
Cc1cn(C2CC(O)C(CI)O2)c(=O)[nH]c1=O (stereo not drawn),T/C,[1],98 % of control
same,T/C,[2],104 % of control
same,T/C,[3],98 % of control
COc1cc2c(c3c1C(=O)c1c(cc4c(c1O)C(OC)CC(C)(O)C4)C3=O)OC1OC2(C)C(O)C(N(C)C)C1O (stereo not drawn),T/C,"dose: 1.25 mg/kg/injection, schedule: Q01DX009 (ip), vehicle: other",117 % of control
same,T/C,"dose: 2.5 mg/kg/injection, schedule: Q01DX009 (ip), vehicle: other",98 % of control
same,T/C,"dose: 5.0 mg/kg/injection, schedule: Q01DX009 (ip), vehicle: other",102 % of control
same,T/C,[4],124 % of control
same,T/C,[5],123 % of control
same,T/C,"dose: 200.0 mg/kg/injection, schedule: Q01DX009 (ip), vehicle: other",179 % of control
CCOP(=Nc1cc(C)ccc1C)(OCC)OCC,T/C,"dose: 12.5 mg/kg/injection, schedule: Q01DX009 (ip), vehicle: Klucel (hydroxypropylcellulose) (HPC)",100 % of control
same,T/C,"dose: 25.0 mg/kg/injection, schedule: Q01DX009 (ip), vehicle: Klucel (hydroxypropylcellulose) (HPC)",94 % of control
same,T/C,"dose: 50.0 mg/kg/injection, schedule: Q01DX001 (ip), vehicle: Klucel (hydroxypropylcellulose) (HPC)",103 % of control
same,T/C,[6],103 % of control and 93 % of control
same,T/C,"dose: 100.0 mg/kg/injection, schedule: Q01DX001 (ip), vehicle: Klucel (hydroxypropylcellulose) (HPC)",100 % of control
same,T/C,"dose: 200.0 mg/kg/injection, schedule: Q01DX001 (ip), vehicle: Klucel (hydroxypropylcellulose) (HPC)",96 % of control
CCCCOP(=O)(Nc1ccccc1)OCCCC,T/C,[7],110 % of control
same,T/C,[8],112 % of control
same,T/C,"dose: 400.0 mg/kg/injection, schedule: Q01DX009 (ip), vehicle: saline with Tween-80",110 % of control
COC(=O)c1nnn(-c2ccc(S(N)(=O)=O)cc2)c1C(=O)c1ccc(Cl)c(Cl)c1,T/C,[9],109 % of control
same,T/C,[10],109 % of control
same,T/C,[11],94 % of control
Nc1nc2[nH]c(=O)c(=O)[nH]c2c(=O)[nH]1,T/C,"dose: 50.0 mg/kg/injection, schedule: Q04DX003 (ip), vehicle: Klucel (hydroxypropylcellulose) (HPC)",96 % of control
same,T/C,"dose: 100.0 mg/kg/injection, schedule: Q04DX003 (ip), vehicle: Klucel (hydroxypropylcellulose) (HPC)",97 % of control
same,T/C,"dose: 200.0 mg/kg/injection, schedule: Q04DX003 (ip), vehicle: Klucel (hydroxypropylcellulose) (HPC)",94 % of control
same,T/C,"dose: 400.0 mg/kg/injection, schedule: Q04DX003 (ip), vehicle: Klucel (hydroxypropylcellulose) (HPC)",105 % of control
O=C(O)c1ccccc1N1C(=O)CC2(CCCC2)C1=O,T/C,[6],101 % of control
same,T/C,[12],98 % of control
same,T/C,[13],94 % of control
Cc1c(-c2ccccc2)noc1-n1nnc2ccccc2c1=O,T/C,[9],100 % of control
same,T/C,[10],100 % of control
same,T/C,[11],89 % of control
O=c1[nH]cncc1CCC1OCCO1,T/C,"dose: 60.0 mg/kg/injection, schedule: Q01DX005 (ip), vehicle: saline",97 % of control
same,T/C,"dose: 120.0 mg/kg/injection, schedule: Q01DX005 (ip), vehicle: saline",98 % of control
same,T/C,"dose: 240.0 mg/kg/injection, schedule: Q01DX005 (ip), vehicle: saline",103 % of control
N/N=C1/C(=O)N(c2ccc(S(N)(=O)=O)cc2)C(=O)C1C(=O)Nc1ccc(S(N)(=O)=O)cc1 (stereo not drawn),T/C,[9],114 % of control
same,T/C,[10],101 % of control
same,T/C,[11],106 % of control
[Cl][Pt+2][Cl].[NH-]CC([NH-])CN,T/C,"dose: 6.25 mg/kg/injection, schedule: Q04DX003 (ip), vehicle: saline",101 % of control
same,T/C,[14],111 % of control
same,T/C,[15],107 % of control
CC1(C)N=C(N)N=C(N)N1c1ccc(OCC(=O)N2CCOCC2)c(Cl)c1,T/C,[16],109 % of control
same,T/C,[17],116 % of control
same,T/C,"dose: 100.0 mg/kg/injection, schedule: Q01DX009 (ip), vehicle: saline",107 % of control
same,T/C,"dose: 100.0 mg/kg/injection, schedule: Q04DX003 (ip), vehicle: saline sonified",113 % of control
Cc1ccnc(N=C2N=C(Nc3cc(C)ccn3)c3ccccc32)c1,T/C,"dose: 6.25 mg/kg/injection, schedule: Q01DX009 (ip), vehicle: saline with Tween-80",93 % of control
same,T/C,[18],88 % of control
same,T/C,[19],99 % of control
same,T/C,[7],91 % of control
same,T/C,[8],90 % of control
CCCCCCC(=O)/C=C/c1cc(Cl)cc(Cl)c1OCOC,T/C,[12],116 % of control
same,T/C,[13],100 % of control
CCN=c1c([N+](=O)[O-])c(NC(=O)c2ccccc2)sn1CC,T/C,"dose: 100.0 mg/kg/injection, schedule: Q04DX002 (ip), vehicle: Klucel (hydroxypropylcellulose) (HPC)",97 % of control
same,T/C,"dose: 200.0 mg/kg/injection, schedule: Q04DX002 (ip), vehicle: Klucel (hydroxypropylcellulose) (HPC)",99 % of control
same,T/C,"dose: 400.0 mg/kg/injection, schedule: Q04DX002 (ip), vehicle: Klucel (hydroxypropylcellulose) (HPC)",107 % of control
c1ccc(CC23CCCCC2N3)cc1 (stereo not drawn),T/C,[20],95 % of control
same,T/C,[14],90 % of control
same,T/C,[16],113 % of control
same,T/C,[15],90 % of control
same,T/C,[17],100 % of control
same,T/C,"dose: 50.0 mg/kg/injection, schedule: Q04DX003 (ip), vehicle: saline",100 % of control
C/C=C/C(O)CC1CCCCN1 (stereo not drawn),T/C,"dose: 100.0 mg/kg/injection, schedule: Q04DX003 (ip), vehicle: saline",100 % of control
O=C(O)CSc1nnc2c3ccccc3c3ccccc3c2n1,T/C,[18],97 % of control
same,T/C,[19],100 % of control
same,T/C,"dose: 50.0 mg/kg/injection, schedule: Q01DX009 (ip), vehicle: saline with Tween-80",100 % of control and 93 % of control
same,T/C,[7],87 % of control
same,T/C,[8],101 % of control
COC(=O)/C=C1\C2OC(C1C(=O)OC)C(O)C2O (stereo not drawn),T/C,[1],100 % of control
same,T/C,[2],97 % of control
same,T/C,[3],90 % of control
COc1cc2c3cc1Oc1c(O)c(OC)cc4c1[C@H](Cc1ccc(cc1)Oc1cc(ccc1O)C[C@H]3N(C)CC2)N(C)CC4,T/C,"dose: 1.25 mg/kg/injection, schedule: Q01DX009 (ip), vehicle: water",100 % of control
same,T/C,"dose: 2.5 mg/kg/injection, schedule: Q01DX009 (ip), vehicle: water",101 % of control
same,T/C,"dose: 5.0 mg/kg/injection, schedule: Q01DX009 (ip), vehicle: water",97 % of control
same,T/C,"dose: 10.0 mg/kg/injection, schedule: Q01DX009 (ip), vehicle: water",101 % of control
same,T/C,[4],103 % of control
same,T/C,"dose: 20.0 mg/kg/injection, schedule: Q01DX009 (ip), vehicle: water",94 % of control
same,T/C,[5],94 % of control
same,T/C,"dose: 80.0 mg/kg/injection, schedule: Q01DX009 (ip), vehicle: other",109 % of control
NC(CO)C(=O)O.[Cl-].[Cl-].[Cl-].[Cl-].[Pt+2] (stereo not drawn),T/C,"dose: 6.25 mg/kg/injection, schedule: Q01DX009 (ip), vehicle: saline",114 % of control
same,T/C,[20],115 % of control
same,T/C,[17],159 % of control
CC1(C)C(=O)C=CC2(C)C1CC(=O)C1(C)C2CCC2(C)C(c3ccoc3)OC(=O)C3OC321 (stereo not drawn),T/C,"dose: 1.5 mg/kg/injection, schedule: Q01DX009 (ip), vehicle: Klucel (hydroxypropylcellulose) (HPC)",98 % of control and 102 % of control
same,T/C,"dose: 3.0 mg/kg/injection, schedule: Q01DX009 (ip), vehicle: Klucel (hydroxypropylcellulose) (HPC)",98 % of control and 102 % of control
same,T/C,"dose: 6.0 mg/kg/injection, schedule: Q01DX009 (ip), vehicle: Klucel (hydroxypropylcellulose) (HPC)",91 % of control and 96 % of control
same,T/C,"dose: 12.0 mg/kg/injection, schedule: Q01DX009 (ip), vehicle: Klucel (hydroxypropylcellulose) (HPC)",102 % of control and 96 % of control
same,T/C,"dose: 24.0 mg/kg/injection, schedule: Q01DX009 (ip), vehicle: Klucel (hydroxypropylcellulose) (HPC)",100 % of control and 102 % of control
CC(C)(C)N1CC(O)C1,T/C,"dose: 50.0 mg/kg/injection, schedule: Q01DX001 (ip), vehicle: saline",100 % of control
same,T/C,"dose: 100.0 mg/kg/injection, schedule: Q01DX001 (ip), vehicle: saline",98 % of control
same,T/C,"dose: 200.0 mg/kg/injection, schedule: Q01DX001 (ip), vehicle: saline",93 % of control
